Reference: paper PMC3206016, “Putting into Practice Domain-Linear Motif Interaction Predictions for Exploration of Protein Networks” (PLoS ONE, 2011)
Ends that are not written are not given here. Peptide text beside a SMILES is read from it. * marks the point of attachment. Biotin = O=C1N[C@H]2[C@H](CS[C@H]2CCCCC(=O)*)N1

Experiments:
Experiment in all cases: SPR binding of MBP-PDZ analyte to immobilised biotinylated peptides
Details in all cases: SPR Biacore 2000, 25 C, steady state, 1:1 binding isotherm, MBP-PDZ 0-30 µM; to be considered with caution; read-out: tentative KD
[1] = target: T1, SCRIB-34/4 tandem PDZ construct (Homo sapiens, UniProt Q14160)
T1 construct: residues 997–1093, 1097–1193 and 997–1193 of human SCRIB (Uniprot acc.: Q14160-1); made in house; host or cells: E. coli BL21 DE3
T1 sequence (Q14160 997-1193 isoform Q14160-1): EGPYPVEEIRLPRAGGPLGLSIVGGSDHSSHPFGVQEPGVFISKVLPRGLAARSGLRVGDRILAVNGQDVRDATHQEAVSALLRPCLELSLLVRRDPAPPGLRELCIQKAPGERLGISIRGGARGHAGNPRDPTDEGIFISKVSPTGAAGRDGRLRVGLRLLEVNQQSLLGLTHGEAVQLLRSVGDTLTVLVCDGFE
Protocol: (§1) We opted for the surface plasmon resonance (SPR) method to measure these 190 (19 proteins×2 peptide versions×5 PDZ constructs) interactions. In SPR various concentrations of “analytes” (here, PDZ domains fused to the Maltose Binding Protein (MBP)) flow over surfaces presenting attached “ligands” (here, biotinylated peptides). The amount of analyte interacting with the ligand is measured and quantified in response units (RU). The intensity of this signal is proportional to the binding strength of the assayed interaction (Figure 5A). K [drawing 13] were obtained using a 1∶1 interaction model. However, these calculated K [drawing 14] were rather inaccurate especially for weak interactions. Therefore, we preferred to rank the binding strengths of the 190 interactions using normalised RU signals at equilibrium ( [drawing 15] ) rather than K [drawing 16] (see Methods for details). These normalised [drawing 17] values were plotted in form of a heat map (Figure 5B).
(§2) The cDNA encoding residues 448–572 and 613–752 of mouse MAGI-1 (UniProt acc.: Q6RHR9-1) encoding for MAGI1-2/6 (100% identical to human MAGI1-2/6) and MAGI1-3/6 (99% identical to human MAGI1-3/6) PDZ domains, respectively, were inserted into the NcoI/KpnI sites of the pETM-41 expression vector (EMBL) containing a 6×His-MBP tag followed by a TEV protease cleavage site. A similar cloning strategy was adopted for cDNA bearing residues 997–1093, 1097–1193 and 997–1193 of human SCRIB (Uniprot acc.: Q14160-1) encoding for SCRIB-3/4, SCRIB-4/4 PDZ domains and SCRIB-34/4 tandem PDZ construct, respectively.
(§3) Data were collected on a Biacore 2000 instrument (Biacore AB/GE Healthcare Bio-Sciences Corp., Piscataway, NJ, USA) at 25 [drawing 74] C. SPR experiments (ligand immobilisation and binding measurements) have been performed as described in Fournane et al.. Briefly, biotinylated peptides (instead of GST-fused recombinant peptides) were immobilised on CM5 sensorchips on which Neutravidin was previously attached. The MBP-PDZ domain analyte was injected at 8 to 10 different concentrations ranging from 0 up to 30 [drawing 75] M. Data were processed using the BiaEvaluation 3.2 software (Biacore AB/GE Healthcare Bio-Sciences Corp.) using “double referencing” [78] in which sensorgrams were corrected for buffer effects and bulk refractive index changes.
(§4) The steady-state binding signal ( [drawing 76] ) was derived by averaging the signals in a five second window at equilibrium. Steady-state analysis was performed by fitting the average signal [drawing 77] as a function of total MBP-PDZ concentrations, assuming a simple 1∶1 interaction binding isotherm model. […] Reasons for this inaccuracy are likely to be the following: 1. As previously described, several repetitions of all the measurements are required to determine accurate K [drawing 81] . In our case, such repetitions were not achievable in reasonable time due to the large amount of interactions measured in this study. 2. The highest injected analyte concentration restricts the maximal K [drawing 82] (weakest interaction) that can be accurately obtained. 3. A K [drawing 83] is estimated based on a mathematical extrapolation of observed [drawing 84] signals leading to additional uncertainty. Based on these reasons, we considered the calculated K [drawing 85] not as accurate enough to be used for absolute binding strength comparison in this study. We rather performed a relative analysis of binding strengths using directly [drawing 86] signals which are not biased by any mathematical assumption. We focussed on [drawing 87] signals obtained at 10 [drawing 88] M MBP-PDZ concentration, which have been systematically measured in duplicate. The [drawing 89] signal is directly proportional to the molecular weight of the analyte and the amount of immobilised ligand. Therefore, the [drawing 90] signals were normalised taking those into account before being used for binding strength comparison. […]

[2] = target: T2, SCRIB-4/4 PDZ domain (Homo sapiens, UniProt Q14160)
T2 construct: residues 997–1093, 1097–1193 and 997–1193 of human SCRIB (Uniprot acc.: Q14160-1); made in house; host or cells: E. coli BL21 DE3
T2 sequence (Q14160 1097-1193 isoform Q14160-1): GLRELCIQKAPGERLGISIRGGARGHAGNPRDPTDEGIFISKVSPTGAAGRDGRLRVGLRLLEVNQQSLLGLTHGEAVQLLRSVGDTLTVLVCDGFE
Protocol: as §1, §2, §3, §4

[3] = target: T3, MAGI1-2/6 PDZ domain (Mus musculus, UniProt Q6RHR9)
T3 construct: The cDNA encoding residues 448–572 and 613–752 of mouse MAGI-1 (UniProt acc.: Q6RHR9-1) encoding for MAGI1-2/6; made in house; host or cells: E. coli BL21 DE3
T3 sequence (Q6RHR9 448-572): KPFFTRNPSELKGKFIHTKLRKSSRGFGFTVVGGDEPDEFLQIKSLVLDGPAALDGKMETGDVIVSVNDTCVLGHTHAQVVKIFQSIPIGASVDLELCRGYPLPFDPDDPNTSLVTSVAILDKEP
Protocol: as §1, §2, §3, §4

Row | Compound | Kd [1] | Kd [2] | Kd [3]
1 | CC(C)C[C@H](NC(=O)[C@@H](NC(=O)[C@H](CCC(=O)O)NC(=O)[C@@H]1CCCN1C(=O)CNC(=O)[C@H](C)NC(=O)CNC(=O)[C@H](CO)NC(=O)CNC(=O)CCCC[C@@H]1SC[C@@H]2NC(=O)N[C@@H]21)[C@@H](C)O)C(=O)N[C@H](C(=O)O)C(C)C [ARHGAP6_05] (Biotin-GSGAGPETLV-OH) |  | 104 µM | 
2 | CC[C@H](C)[C@H](NC(=O)CNC(=O)[C@H](C)NC(=O)CNC(=O)[C@H](CO)NC(=O)CNC(=O)CCCC[C@@H]1SC[C@@H]2NC(=O)N[C@@H]21)C(=O)N[C@@H](C)C(=O)N[C@H](C(=O)N[C@@H](CCC(=O)O)C(=O)N[C@H](C(=O)O)C(C)C)[C@@H](C)O [DLL1_05] (Biotin-GSGAGIATEV-OH) |  | 893 µM | 
3 | CC(C)[C@H](NC(=O)[C@@H](NC(=O)[C@@H](NC(=O)[C@H](CCC(=O)O)NC(=O)[C@@H](NC(=O)CNC(=O)[C@H](C)NC(=O)CNC(=O)[C@H](CO)NC(=O)CNC(=O)CCCC[C@@H]1SC[C@@H]2NC(=O)N[C@@H]21)C(C)C)[C@@H](C)O)C(C)C)C(=O)O [MAS_05] (Biotin-GSGAGVETVV-OH) | 16 µM | 433 µM | 
4 | CC[C@H](C)[C@H](NC(=O)[C@@H](NC(=O)[C@H](CCC(=O)O)NC(=O)[C@H](Cc1c[nH]cn1)NC(=O)CNC(=O)[C@H](C)NC(=O)CNC(=O)[C@H](CO)NC(=O)CNC(=O)CCCC[C@@H]1SC[C@@H]2NC(=O)N[C@@H]21)[C@@H](C)O)C(=O)N[C@H](C(=O)O)C(C)C [TMEM215_05] (Biotin-GSGAGHETIV-OH) | 15 µM |  | 
5 | KDECVIATEV [DLL1_10] |  | 88 µM | 
6 | KPGKGSETVV [FZD4_10] |  |  | 23 µM
7 | NPDALPETLV [ARHGAP6_10] |  |  | 18 µM
8 | SVWLRKETRV [CYSLTR2_10] | 15 µM | 202 µM | 

The remaining compounds from weak to strong by Kd [1], led by results:

Row | Kd [1] | Kd [2] | Kd [3] | Compound
9 | 10 µM |  |  | CC(C)[C@H](NC(=O)[C@H](Cc1ccc(O)cc1)NC(=O)[C@H](CO)NC(=O)[C@H](CCC(=O)O)NC(=O)[C@H](CCCCN)NC(=O)CNC(=O)[C@H](C)NC(=O)CNC(=O)[C@H](CO)NC(=O)CNC(=O)CCCC[C@@H]1SC[C@@H]2NC(=O)N[C@@H]21)C(=O)O [ABC1_05] (Biotin-GSGAGKESYV-OH)
10 | 10 µM | 123 µM |  | CC(C)[C@H](NC(=O)[C@H](CCCNC(=N)N)NC(=O)[C@@H](NC(=O)[C@H](CCC(=O)O)NC(=O)[C@H](CCCCN)NC(=O)CNC(=O)[C@H](C)NC(=O)CNC(=O)[C@H](CO)NC(=O)CNC(=O)CCCC[C@@H]1SC[C@@H]2NC(=O)N[C@@H]21)[C@@H](C)O)C(=O)O [CYSLTR2_05] (Biotin-GSGAGKETRV-OH)
11 | 9 µM |  |  | CC[C@H](C)[C@H](NC(=O)CNC(=O)[C@H](C)NC(=O)CNC(=O)[C@H](CO)NC(=O)CNC(=O)CCCC[C@@H]1SC[C@@H]2NC(=O)N[C@@H]21)C(=O)N[C@@H](CCC(=O)O)C(=O)N[C@@H](CO)C(=O)N[C@@H](CC(N)=O)C(=O)N[C@H](C(=O)O)C(C)C [TANC1_05] (Biotin-GSGAGIESNV-OH)
12 | 9 µM |  |  | QGRWDHETIV [TMEM215_10]
13 | 8 µM |  |  | NRVDSKETEC [ADAM17_10]
14 | 8 µM |  |  | QDEKVKESYV [ABC1_10]
15 | 7 µM |  |  | CC(C)[C@H](NC(=O)[C@@H](NC(=O)[C@@H](NC(=O)[C@H](CCC(=O)O)NC(=O)[C@H](CCCCN)NC(=O)CNC(=O)[C@H](C)NC(=O)CNC(=O)[C@H](CO)NC(=O)CNC(=O)CCCC[C@@H]1SC[C@@H]2NC(=O)N[C@@H]21)[C@@H](C)O)C(C)C)C(=O)O [MARCH3_05] (Biotin-GSGAGKETVV-OH)
16 | 5 µM |  |  | C[C@H](NC(=O)CNC(=O)[C@H](CO)NC(=O)CNC(=O)CCCC[C@@H]1SC[C@@H]2NC(=O)N[C@@H]21)C(=O)NCC(=O)N[C@@H](CCCCN)C(=O)N[C@@H](CCC(=O)O)C(=O)N[C@H](C(=O)N[C@@H](CO)C(=O)N[C@@H](Cc1ccccc1)C(=O)O)[C@@H](C)O [GLUT7_05] (Biotin-GSGAGKETSF-OH)
17 | 4 µM |  |  | GSGAGSETSV [VANG2_05]
18 | 3 µM |  |  | CNTVTVETVV [MAS_10]
